Source: patent US6410529B1, “Phenyl urea and phenyl thiourea derivatives as HFGAN72 antagonists” (SmithKline Beecham p.l.c., priority 1997, dated 2002)
Structures can show the parent of a compound that is named as a salt.

These compounds were tested against T1, human HFGAN72 receptor (Homo sapiens, UniProt O43613) (assay: HFGAN72 receptor antagonist activity, FLIPR intracellular calcium assay against human Lig 72A). Conditions: HEK293 cells expressing human HFGAN72 receptor; against 3.0 nM human Lig 72A; Kb=IC50/(1+([3/EC50]).
T1 construct: expressed in transfected cells; host or cells: HEK293
T1 sequence (O43613 1-425): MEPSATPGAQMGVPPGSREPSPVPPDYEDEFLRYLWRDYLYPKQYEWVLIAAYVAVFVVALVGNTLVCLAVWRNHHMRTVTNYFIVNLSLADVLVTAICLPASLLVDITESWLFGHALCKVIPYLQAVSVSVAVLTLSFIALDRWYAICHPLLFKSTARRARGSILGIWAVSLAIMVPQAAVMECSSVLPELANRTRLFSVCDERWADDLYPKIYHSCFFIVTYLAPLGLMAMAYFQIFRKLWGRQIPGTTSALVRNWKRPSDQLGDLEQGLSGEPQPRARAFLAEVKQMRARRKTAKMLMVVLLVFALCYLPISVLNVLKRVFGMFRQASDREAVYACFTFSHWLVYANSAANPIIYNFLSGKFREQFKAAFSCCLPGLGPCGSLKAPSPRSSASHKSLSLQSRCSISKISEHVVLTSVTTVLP
Format: cell-based
Experimental: The HFGAN72 receptor antagonist activity of the compounds of formula (I), including those compounds in which X and Y both represent CH and without provisos a)-f), was determined in accordance with the following experimental method.
HEK293 cells expressing the human HFGAN72 receptor were grown in cell medium (MEM medium with Earl's salts) containing 2 mM L-Glutamine, 0.4 mg/mL G418 Sulphate from GIBCO BRL and 10% heat inactivated fetal calf serum from Gibco BRL. The cells were seeded at 20,000 cells/100 μl/well into 96-well black clear bottom sterile plates from Costar which had been pre-coated with 10 μg/well of poly-L-lysine from SIGMA. The seeded plates were incubated overnight at 37° C. in 5% CO2.
Agonists were prepared as 1 mM stocks in water:DMSO (1:1). EC50 values (the concentration required to produce 50% maximal response) were estimated using 11× half log unit dilutions (Biomek 2000, Beckman) in Tyrode's buffer containing probenecid (10 mM HEPES with 145 mM NaCl, 10 mM glucose, 2.5 mM KCl, 1.5 mM CaCl2, 1.2 mM MgCl2 and 2.5 mM probenecid; pH7.4). […] On the day of assay 50 μl of cell medium containing probenecid (Sigma) and Fluo3AM (Texas Fluorescence Laboratories) was added (Quadra, Tomtec) to each well to give final concentrations of 2.5 mM and 4 μM, respectively. […] Cell plates were then transferred to the Fluorescent Imaging Plate Reader (FLIPR, Molecular Devices) instrument and maintained at 37° C. in humidified air. […] Agonists were added (by the FLIPR) after 20 sec (during continuous reading). From each well, peak fluorescence was determined over the whole assay period and the mean of readings 1-19 inclusive was subtracted from this figure. The peak increase in fluorescence was plotted against compound concentration and iteratively curve fitted using a four parameter logistic fit (as described by Bowen and Jerman, 1995, TiPS, 16, 413-417) to generate a concentration effect value. Antagonist Kb values were calculated using the equation: […]
where EC50 was the potency of human Lig72A determined in the assay (in nM terms) and IC50 is expressed in molar terms.

Q: `COc1ccc(NC(=O)Nc2ccnc3ccccc23)cc1Cl` [Example 31, 1-(3-Chloro-4-methoxyphenyl)-3-quinolin-4-ylurea hydrochloride] was tested. Which Kb did it give?
A: < 100 nM

Q: With `CSc1ccc(NC(=O)Nc2ccnc3ccccc23)cc1` [Example 14, 1-(4-Methylthiophenyl)-3-quinolin-4-ylurea hydrochloride] as the compound, how does the Kb read?
A: < 100 nM

Q: Which Kb does the source give for `Cn1ccc2cc(NC(=O)Nc3ccnc4ccccc34)ccc21` [Example 1, 1-(1-Methyl-1H-indol-5-yl)-3-quinolin-4-ylurea] here?
A: < 100 nM
